US20250018047A1, “METHODS AND COMPOSITIONS FOR TARGETED PROTEIN DEGRADATION” (Ranok Therapeutics (Hangzhou) Co. Ltd., priority 2021, published 2025)

Experiments:
[1] = test system: AsPC-1 human pancreatic adenocarcinoma; test: CellTiter-Glo cancer cell line proliferation assay, AsPC-1; assay type: cell-based; conditions: Homo sapiens, ASPC1, 24 hr
Description: (§1) Cell lines were cultured according to ATCC and recommendations.
(§2) CellTiter-Glo® Reagent Cancer Cell Line Proliferation Assays
(§3) Cells were plated in 96-well tissue culture plates at 4,000 cells/well and incubated at 37° C./5% CO2 for 24 hr in 100 μl of media. […] Cells were then treated with test compounds at various concentrations with a final concentration of 0.5% DMSO/well, and then incubated at 37° C./5% CO2 for 24 hr. 100 μl of CellTiter-Glo® Reagent (Promega Corporation, Madison, WI) was added to each well and processed according manufacturer's protocol. Results were analyzed and IC50-values were calculated in GraphPad 7 software.

[2] = test system: A-427 human lung carcinoma; test: CellTiter-Glo cancer cell line proliferation assay, A-427; assay type: cell-based; conditions: Homo sapiens, A-427, 24 hr, read-out: A427 at 24 hrs, IC50
Description: as §1, §2, §3

KRAS(G12D)/SOS1 = molecular target: T1, KRAS(G12D)/SOS1 (Homo sapiens, UniProt P01116, G12D); test: KRAS(G12D)/SOS1 homogeneous time-resolved fluorescence (HTRF) assay; assay type: binding; conditions: absence of GTP, 4° C. for 3 hr
T1 construct: purchased Cisbio 63ADK000CB16PEG
Description: The test compound was mixed and incubated with reaction components, incubated in a sealed plate at 4° C. for 3 hr and fluorescence was measured using a PerkinElmer Envision plate reader.

KRAS(G12D) = molecular target: T2, KRAS(G12D) (Homo sapiens, UniProt P01116, G12D); test: SW1990 WB assay (degradation DC50, Dmax); assay type: cell-based; conditions: Western blot, SW1990 cells
T2 construct: endogenous in cells; host or cells: SW1990
T2 sequence (P01116 1-188 isoform P01116-2 G12D): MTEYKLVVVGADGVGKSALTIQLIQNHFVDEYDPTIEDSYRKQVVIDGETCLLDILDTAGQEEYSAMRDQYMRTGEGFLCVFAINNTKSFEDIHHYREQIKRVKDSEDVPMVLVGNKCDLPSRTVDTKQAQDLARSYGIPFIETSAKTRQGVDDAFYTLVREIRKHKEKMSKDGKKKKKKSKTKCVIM

T1 sequence (P01116 1-188 isoform P01116-2 G12D): as above

Row | Compound | IC50 [1] | IC50 [2] | IC50 (KRAS(G12D)/SOS1) | DC50 (KRAS(G12D)) | Dmax (KRAS(G12D))
1 | CN1C[C@H](N2CCN(C(=O)C3CCN(c4ccc5c(c4)C(=O)N(C4CCC(=O)NC4=O)C5=O)CC3)CC2)C[C@@H]1COc1nc(N2CC3CCC(C2)N3)c2cnc(-c3cc(O)cc4ccccc34)c(F)c2n1 (stereo partly shown) [Compound 37] | > 1000 nM | > 1000 nM | < 100 nM | – | –
2 | C#Cc1c(F)ccc2cc(O)cc(-c3ncc4c(N5CC6CCC(C5)N6)nc(OCC5(CN6CCN(CC7CCN(c8ccc9c(c8)C(=O)N(C8CCC(=O)NC8=O)C9=O)CC7)CC6)CC5)nc4c3F)c12 (stereo not shown) [Compound 59] | 100 to 1000 nM | 100 to 1000 nM | < 100 nM | – | –
3 | O=C1CCC(N2C(=O)c3ccc(CN4CCN(CC5(COc6nc(N7CC8CCC(C7)N8)c7cnc(-c8cc(O)cc9ccccc89)c(F)c7n6)CC5)CC4)cc3C2=O)C(=O)N1 (stereo not shown) [Compound 41] | > 1000 nM | > 1000 nM | < 100 nM | – | –
4 | CN1C[C@H](N2CCC(C(=O)N3CCN(c4ccc5c(c4)C(=O)N(C4CCC(=O)NC4=O)C5=O)CC3)CC2)C[C@@H]1COc1nc(N2CC3CCC(C2)N3)c2cnc(-c3cc(O)cc4ccccc34)c(F)c2n1 (stereo partly shown) [Compound 46] | > 1000 nM | > 1000 nM | < 100 nM | – | –
5 | O=C1CCC(N2Cc3cc(CN4CCN(CC5(COc6nc(N7CC8CCC(C7)N8)c7cnc(-c8cc(O)cc9ccccc89)c(F)c7n6)CC5)CC4)ccc3C2=O)C(=O)N1 (stereo not shown) [Compound 40] | > 1000 nM | > 1000 nM | < 100 nM | – | –
6 | CN1C[C@H](N2CCN(C(=O)C3CCN(c4ccc5c(c4)CN(C4CCC(=O)NC4=O)C5=O)CC3)CC2)C[C@@H]1COc1nc(N2CC3CCC(C2)N3)c2cnc(-c3cc(O)cc4ccccc34)c(F)c2n1 (stereo partly shown) [Compound 44] | > 1000 nM | > 1000 nM | < 100 nM | – | –
7 | O=C1CCC(N2Cc3cc(N4CCN(CC5(COc6nc(N7CC8CCC(C7)N8)c7cnc(-c8cccc9cccc(Cl)c89)c(F)c7n6)CC5)CC4)ccc3C2=O)C(=O)N1 (stereo not shown) [Compound 80] | > 1000 nM | > 1000 nM | < 100 nM | – | –
8 | C#Cc1c(F)ccc2cc(O)cc(-c3nc(OC)c4c(N5CC6CCC(C5)N6)nc(OCC5(CN6CCN(C7CCN(c8ccc9c(c8)CN(C8CCC(=O)NC8=O)C9=O)CC7)CC6)CC5)nc4c3F)c12 (stereo not shown) [Compound 112] | – | – | < 100 nM | < 100 nM | –
9 | O=C1CCC(N2C(=O)c3ccc(N4CCC(C(=O)N5CCN(CC6(COc7nc(N8CC9CCC(C8)N9)c8cnc(-c9cc(O)cc%10ccccc9%10)c(F)c8n7)CC6)CC5)CC4)cc3C2=O)C(=O)N1 (stereo not shown) [Compound 39] | > 1000 nM | > 1000 nM | < 100 nM | – | –
10 | C#Cc1cccc2cccc(-c3ncc4c(N5CC6CCC(C5)N6)nc(OC[C@H]5CC[C@@H](CN6CCN(CC7CCC(Nc8ccc9c(c8)C(=O)N(C8CCC(=O)NC8=O)C9=O)CC7)CC6)N5C)nc4c3F)c12 (stereo partly shown) [Compound 79] | > 1000 nM | > 1000 nM | < 100 nM | – | –
11 | C#Cc1c(F)ccc2cc(O)cc(-c3ncc4c(N5CC6CCC(C5)N6)nc(OCC5(CN6CCC(N7CCC(c8ccc9c(c8)CN(C8CCC(=O)NC8=O)C9=O)CC7)CC6)CC5)nc4c3F)c12 (stereo not shown) [Compound 107] | < 100 nM | – | < 100 nM | < 100 nM | –
12 | C#Cc1c(F)ccc2cc(O)cc(-c3nc(O)c4c(N5CC6CCC(C5)N6)nc(OCC5(CN6CCN(CC7CCN(c8ccc9c(c8)CN(C8CCC(=O)NC8=O)C9=O)CC7)CC6)CC5)nc4c3F)c12 (stereo not shown) [Compound 101] | 100 to 1000 nM | > 1000 nM | – | > 1000 nM | < 10%
13 | CN1C[C@H](N2CCN(CC3CCN(c4cccc5c4C(=O)N(C4CCC(=O)NC4=O)C5=O)CC3)CC2)C[C@@H]1COc1nc(N2CC3CCC(C2)N3)c2cnc(-c3cc(O)cc4ccccc34)c(F)c2n1 (stereo partly shown) [Compound 35] | > 1000 nM | > 1000 nM | < 100 nM | – | –
14 | C#Cc1cccc2cccc(-c3ncc4c(N5CC6CCC(C5)N6)nc(OC[C@H]5C[C@@H](N6CCN(C[C@H]7CC[C@H](Nc8ccc9c(c8)C(=O)N(C8CCC(=O)NC8=O)C9=O)CC7)CC6)CN5C)nc4c3F)c12 (stereo partly shown) [Compound 77] | > 1000 nM | > 1000 nM | < 100 nM | – | –
15 | C#Cc1cccc2cc(O)cc(-c3ncc4c(N5CC6CCC(C5)N6)nc(OCC5(CN6CCN(CC7CCN(c8ccc9c(c8)C(=O)N(C8CCC(=O)NC8=O)C9=O)CC7)CC6)CC5)nc4c3F)c12 (stereo not shown) [Compound 56] | – | 100 to 1000 nM | < 100 nM | < 100 nM | > 50%
16 | O=C1CCC(N2C(=O)c3ccc(N4CCC(CN5CCN(CC6(COc7nc(N8CC9CCC(C8)N9)c8cnc(-c9cc(O)cc%10ccccc9%10)c(F)c8n7)CC6)CC5)CC4)cc3C2=O)C(=O)N1 (stereo not shown) [Compound 47] | > 1000 nM | > 1000 nM | < 100 nM | – | –
17 | C#Cc1c(F)ccc2cc(O)cc(-c3ncc4c(N5CC6CCC(C5)N6)nc(OCC5(CN6CCC(CN7CCC(c8ccc9c(c8)CN(C8CCC(=O)NC8=O)C9=O)CC7)CC6)CC5)nc4c3F)c12 (stereo not shown) [Compound 111] | – | – | < 100 nM | < 100 nM | > 50%
18 | C#Cc1c(F)ccc2cc(O)cc(-c3ncc4c(N5CCN(C(=O)CC)[C@@H](CC#N)C5)nc(OCC5(CN6CCN(CC7CCN(c8ccc9c(c8)CN(C8CCC(=O)NC8=O)C9=O)CC7)CC6)CC5)nc4c3F)c12 (stereo partly shown) [Compound 97] | > 1000 nM | > 1000 nM | < 100 nM | – | –
19 | C#Cc1cccc2cc(O)cc(-c3ncc4c(N5CC6CCC(C5)N6)nc(OCC5(CN6CCC(C(=O)N7CCN(c8ccc9c(c8)CN(C8CCC(=O)NC8=O)C9=O)CC7)CC6)CC5)nc4c3F)c12 (stereo not shown) [Compound 85] | > 1000 nM | < 100 nM | – | 100 to 1000 nM | > 50%
20 | CN1C[C@H](N2CCN(Cc3ccc4c(c3)C(=O)N(C3CCC(=O)NC3=O)C4=O)CC2)C[C@@H]1COc1nc(N2CC3CCC(C2)N3)c2cnc(-c3cc(O)cc4ccccc34)c(F)c2n1 (stereo partly shown) [Compound 36] | > 1000 nM | > 1000 nM | < 100 nM | – | –
21 | C#Cc1c(F)ccc2cc(O)cc(-c3nc(OC)c4c(N5CCN(C(=O)CC)[C@H](CC#N)C5)nc(OCC5(CN6CCN(CC7CCN(c8ccc9c(c8)CN(C8CCC(=O)NC8=O)C9=O)CC7)CC6)CC5)nc4c3F)c12 (stereo partly shown) [Compound 92] | > 1000 nM | > 1000 nM | < 100 nM | – | –
22 | COc1nc(-c2cc(O)cc3ccccc23)c(F)c2nc(OCC3(CN4CCN(CC5CCN(c6ccc7c(c6)C(=O)N(C6CCC(=O)NC6=O)C7=O)CC5)CC4)CC3)nc(N3CC4CCC(C3)N4)c12 (stereo not shown) [Compound 66] | 100 to 1000 nM | 100 to 1000 nM | < 100 nM | – | –
23 | CN1C[C@H](N2CCN(CC3CCN(c4ccc5c(c4)C(=O)N(C4CCC(=O)NC4=O)C5=O)CC3)CC2)C[C@@H]1COc1nc(N2CC3CCC(C2)N3)c2cnc(-c3cc(O)cc4ccccc34)c(F)c2n1 (stereo partly shown) [Compound 34] | > 1000 nM | > 1000 nM | < 100 nM | – | –
24 | C#Cc1c(F)ccc2cc(O)cc(-c3ncc4c(N5CC6CCC(C5)N6)nc(OCC5(CN6CCN(C7CCN(c8ccc9c(c8)CN(C8CCC(=O)NC8=O)C9=O)CC7)CC6)CC5)nc4c3F)c12 (stereo not shown) [Compound 104] | 100 to 1000 nM | – | < 100 nM | < 100 nM | > 50%
25 | O=C1CCC(N2C(=O)c3ccc(CN4CCN([C@H]5CN6CCC[C@@]6(COc6nc(N7CC8CCC(C7)N8)c7cnc(-c8cc(O)cc9ccccc89)c(F)c7n6)C5)CC4)cc3C2=O)C(=O)N1 (stereo partly shown) [Compound 50] | > 1000 nM | > 1000 nM | < 100 nM | – | –
26 | C#Cc1cccc2cc(O)cc(-c3ncc4c(N5CC6CCC(C5)N6)nc(OCC5(CN6CCN(CC7CCN(c8ccc9c(c8)CN(C8CCC(=O)N(C)C8=O)C9=O)CC7)CC6)CC5)nc4c3F)c12 (stereo not shown) [Compound 71] | – | 100 to 1000 nM | < 100 nM | > 1000 nM | 10 to 50%
27 | O=C1CCC(N2C(=O)c3cccc(N4CCC(CN5CCN(CC6(COc7nc(N8CC9CCC(C8)N9)c8cnc(-c9cc(O)cc%10ccccc9%10)c(F)c8n7)CC6)CC5)CC4)c3C2=O)C(=O)N1 (stereo not shown) [Compound 42] | > 1000 nM | > 1000 nM | < 100 nM | – | –
28 | C#Cc1cccc2cccc(-c3ncc4c(N5CC6CCC(C5)N6)nc(OCC5(CN6CCN(CC7CCN(c8ccc9c(c8)C(=O)N(C8CCC(=O)NC8=O)C9=O)CC7)CC6)CC5)nc4c3F)c12 (stereo not shown) [Compound 48] | > 1000 nM | > 1000 nM | < 100 nM | – | –
